Laboratory results as given in US20130171091A1, “Nanocell Drug Delivery System” (Massachusetts Institute of Technology, priority 2004, published 2013).

Assays:
Assay type in all cases: cell-based
[1] = test system: B16/F10 melanoma cells and human umbilical vein endothelial cells; test: HGF/SF-induced response in co-culture assay on matrigel
Text: (§1) Protocol: For setting up the system, human umbilical vein endothelial cells, pooled from three donors, were purchased from Cambrex, and used between passages 3-6. […] For the tumor component, we used B16/F10 melanoma cells as the model cell line, which were stably transfected to express green fluorescent protein. Plasmid expressing enhanced green fluorescent protein (pEGFP-C2, Clontech) was linearized and lipofected (Lipofectamine 2000, Invitrogen) into B16-F10 cells. […] The GFP-B16/F10 cells were regularly cultured in DMEM supplemented with 5% FBS. Sterile glass coverslips (Corning) were coated with matrigel (extracellular matrix extracted from murine Englebreth-Holms sarcoma, diluted 1:3 in phosphate buffer saline; Becton Dickinson) or collagen (type I from rat's tail, Becton Dickinson). Synchronized human umbilical vein endothelial cells were trypsinised and plated on the coverslips at a density of 2×10^4 cells per well. The cells were allowed to adhere for 24 hours in endothelial basal media supplemented with 20% fetal bovine serum. At this time point, the media was replaced with EBM supplemented with 1% serum, and green fluorescent protein-expressing B16/F10 cells were added to the system at a density of 5×10^3 cells per well. The co-culture was allowed to incubate overnight, following which different treatments were added to the media. At 24 hours post-treatment, the cells were fixed in paraformaldehyde (4% on ice, for 20 min), and stained with propidium iodide. The coverslips were mounted with antifade, and analysed with a LSM510 Zeiss confocal microscope. […] Data were expressed as the ratio of each component to the total area covered by cells.

[2] = test system: B16/F10 melanoma cells and human umbilical vein endothelial cells; test: VEGF-induced response in co-culture assay on matrigel; design: VEGF-induced endothelial network: dose or concentration left out as unconfirmed; settings: for effect on tumor cells: Doxorubicin 10-50 μM
Text: as §1

[3] = test system: B16/F10 melanoma cells and human umbilical vein endothelial cells; test: HGF-induced response in co-culture assay plated on collagen
Text: as §1, with “At this time point, the media was replaced with EBM supplemented with 1% serum, and green fluorescent protein-expressing B16/F10 cells were added to the system at a density of 5×10^3 cells per well. The co-culture was allowed to incubate overnight, following which different treatments were added to the media. At 24 hours post-treatment, the cells were fixed in paraformaldehyde (4% on ice, for 20 min), and stained with propidium iodide.” left out

[4] = test system: B16/F10 melanoma cells and human umbilical vein endothelial cells; test: VEGF-induced response in co-culture assay plated on collagen
Text: as §1, with “At this time point, the media was replaced with EBM supplemented with 1% serum, and green fluorescent protein-expressing B16/F10 cells were added to the system at a density of 5×10^3 cells per well. The co-culture was allowed to incubate overnight, following which different treatments were added to the media. At 24 hours post-treatment, the cells were fixed in paraformaldehyde (4% on ice, for 20 min), and stained with propidium iodide.” left out

[5] = test system: B16/F10 melanoma cells and human umbilical vein endothelial cells; test: Effect of VEGF and HGF on tumor angiogenesis in vitro, co-culture on matrigel; settings: growth factor added to co-culture on matrigel
Procedure: Protocol: For setting up the system, human umbilical vein endothelial cells, pooled from three donors, were purchased from Cambrex, and used between passages 3-6. The cells were grown in endothelial basal medium supplemented with 20% fetal bovine serum (FBS) and bulletkit-2 (Sengupta et al. Cancer Res. 63 (23):8351-59, Dec. 1, 2003). For the tumor component, we used B16/F10 melanoma cells as the model cell line, which were stably transfected to express green fluorescent protein. Plasmid expressing enhanced green fluorescent protein (pEGFP-C2, Clontech) was linearized and lipofected (Lipofectamine 2000, Invitrogen) into B16-F10 cells. The stably integrated clones of B16-F10 cells were selected by 800 μg/ml G418. The green fluorescence of the G418 resistant clones was further confirmed by Flow Cytometry and epifluorescence microscopy. The GFP-B16/F10 cells were regularly cultured in DMEM supplemented with 5% FBS. […] The coverslips were mounted with antifade, and analysed with a LSM510 Zeiss confocal microscope. […] Quantification of the area covered by the endothelial cells or GFP-BL6/F10 cells was carried out using a planimetric point-count method using a 224-intersection point square reticulum. Data were expressed as the ratio of each component to the total area covered by cells. […]

## COc1cccc2c1C(=O)c1c(O)c3c(c(O)c1C2=O)C[C@@](O)(C(=O)CO)C[C@@H]3O[C@H]1C[C@H](N)[C@H](O)[C@H](C)O1 [Doxorubicin]
[1]
  tumor cell death: selective induction of tumor cell death
[2]
  effect on tumor cells: selective ablation of the tumor cells in a concentration-dependent manner
[2]; highest concentration used
  VEGF-induced endothelial network: no effect on the VEGF-induced endothelial network
[3]; HGF/SF-treated co-culture
  tumor cell death: induced tumor cell death
[4]; VEGF-treated co-culture
  tumor cell death: induced tumor cell death

## Clc1ccc(Nc2nnc(Cc3ccncc3)c3ccccc23)cc1 [PTK787]
[1]
  HGF/SF-induced response (endothelial network): no effect on the HGF/SF-induced response
[2]
  VEGF-induced angiogenesis / vascular network: blocked

## O=C1CCC(N2C(=O)c3ccccc3C2=O)C(=O)N1 (centres unmarked) [thalidomide]
[1]
  HGF/SF-induced response (endothelial network): failed to inhibit the HGF-induced effect
[2]
  VEGF-induced angiogenesis / vascular network: collapse of the VEGF-induced vascular network
  effect on tumor cells: without affecting the tumor cells
[3]; HGF/SF
  endothelial cell loss: induced endothelial cell loss
[4]
  angiogenic effects of VEGF: inhibited the angiogenic effects of VEGF

## HGF/SF: growth factor added to the co-culture
[5]
  vascular network: significant increase in the vascular network

## VEGF
[5]
  vascular network: significant increase in the vascular network
